Test results from article PMC11250742, “Preclinical evaluation of CXCR4 peptides for targeted radionuclide therapy in glioblastoma” (EJNMMI Radiopharmacy and Chemistry, 2024).
Where a SMILES comes first, the peptide text is derived from it. Bridges are numbered along the chain shown (N, C = ends). [ ]: non-standard residue; d: D form. The star is where a group is joined. DOTA = O=C(O)CN1CCN(CC(=O)O)CCN(CC(=O)*)CCN(CC(=O)O)CC1; 2Nal = N[C@@H](Cc1ccc2ccccc2c1)C(=O)O; Cit = NC(=O)NCCC[C@H](N)C(=O)O

Biological target: T1, CXCR4 (Homo sapiens, UniProt P61073)
T1 construct: expressed in transfected cells; host or cells: U87-MG (U87-CXCR4+), kept under blasticidin selection
T1 sequence (P61073 whole entry): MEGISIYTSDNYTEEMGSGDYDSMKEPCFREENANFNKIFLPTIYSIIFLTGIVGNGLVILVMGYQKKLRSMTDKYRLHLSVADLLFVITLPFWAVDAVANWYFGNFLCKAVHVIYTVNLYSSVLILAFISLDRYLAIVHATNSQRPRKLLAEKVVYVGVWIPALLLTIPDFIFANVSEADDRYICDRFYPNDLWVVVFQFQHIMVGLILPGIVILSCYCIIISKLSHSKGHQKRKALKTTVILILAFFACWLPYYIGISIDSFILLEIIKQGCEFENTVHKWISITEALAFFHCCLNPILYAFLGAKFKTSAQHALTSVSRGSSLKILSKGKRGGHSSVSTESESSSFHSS
Assay: Saturation binding assay on U87-CXCR4 + cells
Conditions: 0.1–1000 nM, 4 h, 37 °C; NSB with 100 µM AMD11070; N = 2
Procedure: In the saturation binding assays, U87-CXCR4 + cells were seeded in 24-well plates and allowed to adhere. The night before the experiment, complete media was replaced with media containing 2% FBS. To determine the total binding, cells were treated with a mixture of each radiolabelled peptide (at final concentrations ranging from 0.1 to 1000 nM, corresponding to activity concentrations ranging from 0.005 to 50 MBq/mL) with 0.2% dimethyl sulfoxide (DMSO, vehicle). Non-specific binding (NSB) was verified by treating cells with a mixture of each radiolabelled peptide with 100 µM of AMD11070, a potent CXCR4 antagonist.
After 4 h of incubation at 37 °C and 5% CO2, the unbound fraction was collected in gamma counter tubes, and the cells were washed twice with PBS. The wash fractions were added to the same gamma counter tubes. Next, cells were lysed by incubation with 1 M NaOH for 30 min at room temperature (RT). After collecting the lysed cell fractions, two washes with 1 M NaOH were performed, and added to the same fractions, corresponding to the total bound fractions.
The activities of all collected fractions were measured in an automated gamma counter. […]
Statistical analyses and data plotting were done using GraphPad Prism 10. […] Statistical significance was evaluated with one-way ANOVA followed by post-hoc comparisons with the untreated cells using Dunnett’s test. […]

SMILES: N=C(N)NCCC[C@@H]1NC(=O)[C@@H]2CSSC[C@H](NC(=O)[C@H](Cc3ccc4ccccc4c3)NC(=O)[C@H](CCCNC(=N)N)NC(=O)[C@H](CCCNC(=N)N)NC(=O)[C@H]3CCCN3C(=O)CNC1=O)C(=O)N[C@@H](Cc1ccc(O)cc1)C(=O)N[C@@H](CCC(N)=O)C(=O)N[C@@H](CCCCNC(=O)CN1CCN(CC(=O)O)CCN(CC(=O)O)CCN(CC(=O)O)CC1)C(=O)N1CCC[C@@H]1C(=O)N1CCC[C@H]1C(=O)N[C@@H](Cc1ccc(O)cc1)C(=O)N[C@@H](CCCNC(=N)N)C(=O)N[C@@H](CCCNC(N)=O)C(=O)N2 [[^177Lu]Lu-DOTA-POL3026, metal not drawn] (cyclo(RR[2Nal]CYQK(DOTA)[dP]PYR[Cit]CRG[dP]); disulfide 4-13)
- Kd: 21.8 nM
